Results as given in patent publication US8618101B2, “N-((1R,2S,5R)-5-(tert-butylamino)-2-((S)-3-(7-tert-butylpyrazolo[1,5-a][1,3,5]triazin-4-ylamino)-2-oxopyrrolidin-1-yl)cyclohexyl)acetamide, a dual modulator of chemokine receptor activity, crystalline forms and processes” (Bristol-Myers Squibb Company, priority 2009, dated 2013).

Tests used:
[1] = target: T1, human CCR-2 (Homo sapiens, UniProt P41597); assay: 125I-mouse MCP-1 binding to human CCR-2-expressing cells (hPBMCs); parameters: hPBMCs were isolated from human leukopak; host or cells: human peripheral blood mononuclear cells; details: read-out: in vitro IC50 for inhibition of 125I-mouse MCP-1 binding to human CCR-2-expressing cells (hPBMCs)
T1 sequence (P41597 1-360 isoform P41597-2): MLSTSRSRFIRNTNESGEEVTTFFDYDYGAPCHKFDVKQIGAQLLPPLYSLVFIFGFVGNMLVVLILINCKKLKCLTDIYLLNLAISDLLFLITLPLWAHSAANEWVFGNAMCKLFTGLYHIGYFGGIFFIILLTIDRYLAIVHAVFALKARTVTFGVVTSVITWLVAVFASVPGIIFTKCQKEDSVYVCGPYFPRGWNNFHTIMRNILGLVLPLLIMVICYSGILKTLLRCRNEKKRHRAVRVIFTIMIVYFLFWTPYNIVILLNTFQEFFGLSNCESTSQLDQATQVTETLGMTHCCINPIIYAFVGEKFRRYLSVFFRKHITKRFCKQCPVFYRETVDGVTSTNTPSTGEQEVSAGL

[2] = target: T1, human CCR-2; assay: Human CCR-2 binding assay with hPBMCs, 125I-human MCP-1 tracer; parameters: hPBMCs were isolated from human leukopak; host or cells: human peripheral blood mononuclear cells
Protocol: See also: Yoshimura et al., J. Immunol., 145:292 (1990). […] This was followed by adding 25 μl of Microscint 20 into each well. The plate was sealed and counted on the Trilux for 1 minute. […] All conditions were tested in duplicate.

[3] = target: T2, CCR-5 (Homo sapiens, UniProt P51681); assay: CCR-5 chemotaxis, MIP-1β-induced, peripheral T cells; assay type: cell-based
T2 construct: human peripheral T cells was used as a source of CCR-5; endogenous in cells; host or cells: human peripheral T cells from donors pre-screened for high CCR-5 expression
Description: Therefore, blood donors were pre-screened for high T-cell expression of CCR-5. hPBMCs were first isolated from human whole blood by standard protocol with Ficoll-Hypaque. Flow cytometric analysis was then used to measure CCR-5 expression on T cells following staining with anti-CCR-5 antibody plus anti-CD4 antibody or anti-CD8 antibody. Those blood donors in which >5% peripheral T cells (CD4^+ and CD8^+) express CCR-5 were requested to provide blood again for isolation of PBMCs and, subsequently, of T cells using a standard E-rosetting technique which relies on the unique ability of T cells to bind to sheep red blood cells (RBCs).
A similar procedure to that set forth above was adopted except that isolated peripheral T cells was used as CCR-5-expressing cells and MIP-1β (50 nM, PeproTech Inc.) was the ligand.

[4] = target: T3, hERG (Homo sapiens, UniProt Q12809); assay: hERG Flux (Tl+ flux, FLIPR); assay type: cell-based; details: HEK293 cells expressing hERG
T3 construct: expressed in transfected cells; host or cells: HEK293
Protocol: HEK293 cells stably-expressing hERG channels were grown (37° C., 5% CO2) in Dulbecco's Modified Eagle's Media supplemented with 10% Sigma fetal bovine serum, non-essential amino acids, 2 mM L-glutamine and 500 μg/ml G418, at incubator. Cell dissociation buffer was used to extract the cells from flasks, which were then plated into 384-well CORNING® poly-D-lysine coated black/clear plates at a density of 2×10^4 cells per well (20 μl) in 10% serum media, and incubated for 15-24 hours at 37° C. in a 5% CO2 incubator until a confluent monolayer of cells was obtained. […]
The test compound was diluted to 10 mM DMSO in 60 μl. […] Assay-ready plates were generated by stamping 2.5 μl from the DMSO serially diluted plate, which was prepared on the Velocity 11 BIOCEL®. Aqueous plates were created by adding 48 μl of EP buffer and then were diluted 30-45 minutes before the assay was read on the FLIPR®. […] Assay-ready aqueous plates were prepared and diluted on a CyBio liquid handler.
Cells loaded with dye were read on the FLIPR®384 (Molecular Devices, Sunnyvale, Calif.), which excites the dye using the 488 nm line of an argon laser. […]
The dynamic range of the assay was determined from blanks and totals wells. […] Data were analyzed by fitting maximum amplitudes of change in fluorescence for Tl^+ flux for a given condition of test compound.

T2 sequence (P51681 whole entry): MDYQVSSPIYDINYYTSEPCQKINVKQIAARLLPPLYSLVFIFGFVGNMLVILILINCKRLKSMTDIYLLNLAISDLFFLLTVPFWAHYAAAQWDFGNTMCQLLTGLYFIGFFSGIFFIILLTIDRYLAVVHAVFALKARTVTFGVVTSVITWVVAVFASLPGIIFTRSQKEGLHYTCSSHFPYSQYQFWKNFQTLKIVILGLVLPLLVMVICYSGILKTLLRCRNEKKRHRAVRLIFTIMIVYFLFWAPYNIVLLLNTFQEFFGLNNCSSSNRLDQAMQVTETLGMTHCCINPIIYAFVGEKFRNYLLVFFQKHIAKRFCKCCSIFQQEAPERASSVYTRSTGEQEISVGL
T3 sequence (Q12809 whole entry): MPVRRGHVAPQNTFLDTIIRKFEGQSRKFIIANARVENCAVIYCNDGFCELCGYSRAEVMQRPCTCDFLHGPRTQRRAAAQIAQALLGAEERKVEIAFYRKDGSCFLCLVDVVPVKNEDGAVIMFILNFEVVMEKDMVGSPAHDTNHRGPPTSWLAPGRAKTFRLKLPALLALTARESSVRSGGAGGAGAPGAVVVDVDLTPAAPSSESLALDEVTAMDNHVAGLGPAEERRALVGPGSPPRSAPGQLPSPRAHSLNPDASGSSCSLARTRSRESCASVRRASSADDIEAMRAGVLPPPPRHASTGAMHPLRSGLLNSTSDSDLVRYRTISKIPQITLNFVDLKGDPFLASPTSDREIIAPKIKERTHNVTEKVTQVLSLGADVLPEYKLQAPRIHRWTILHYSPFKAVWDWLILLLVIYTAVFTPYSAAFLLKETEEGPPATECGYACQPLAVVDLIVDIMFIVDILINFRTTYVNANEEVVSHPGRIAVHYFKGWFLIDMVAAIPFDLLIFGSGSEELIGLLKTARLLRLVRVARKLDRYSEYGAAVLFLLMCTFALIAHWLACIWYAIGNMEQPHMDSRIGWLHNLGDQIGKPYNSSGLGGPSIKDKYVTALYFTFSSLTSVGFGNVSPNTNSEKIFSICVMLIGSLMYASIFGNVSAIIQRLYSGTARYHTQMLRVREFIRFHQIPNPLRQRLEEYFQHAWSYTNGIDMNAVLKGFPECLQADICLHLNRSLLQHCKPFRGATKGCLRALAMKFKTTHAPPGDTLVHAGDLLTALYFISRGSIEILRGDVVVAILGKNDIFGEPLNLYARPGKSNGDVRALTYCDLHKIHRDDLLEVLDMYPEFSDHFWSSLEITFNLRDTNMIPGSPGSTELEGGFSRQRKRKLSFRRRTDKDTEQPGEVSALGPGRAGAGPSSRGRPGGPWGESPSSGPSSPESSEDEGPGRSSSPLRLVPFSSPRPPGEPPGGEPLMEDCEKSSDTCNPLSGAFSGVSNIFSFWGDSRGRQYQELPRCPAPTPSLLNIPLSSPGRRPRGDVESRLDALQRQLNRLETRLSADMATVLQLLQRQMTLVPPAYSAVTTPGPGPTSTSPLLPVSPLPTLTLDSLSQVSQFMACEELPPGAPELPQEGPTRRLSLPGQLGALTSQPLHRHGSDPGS

CC(=O)N[C@@H]1C[C@H](NC(C)(C)C)CC[C@@H]1N1CC[C@H](Nc2ncnc3cc(C(C)(C)C)nn23)C1=O [Example 1, N-((1R,2 S,5R)-5-(tert-Butylamino)-2-((S)-3-(7-tert-butylpyrazolo[1,5-a][1,3,5]triazin-4-ylamino)-2-oxopyrrolidin-1-yl)cyclohexyl)acetamide]
IC50 [1]: 5.8 ± 2.3 nM
Ki ([2]; average, read-out: average Ki for binding to hCCR-2): 2 nM
IC50 ([2]; hPBMCs, 125I-human MCP-1): 6.2 ± 2.7 nM
IC50 [3]: 1.1 ± 0.6 nM
IC50 [4]: > 80000 nM
